According to patent publication US20230293517A1, “ANTAGONIST COMPOUNDS” (AdoRx Therapeutics Limited, priority 2020, published 2023):

What was measured:
[1] = biological target: human Adenosine A3 receptor (Homo sapiens (Human), UniProt P0DMS8); experiment: Adenosine receptor TR-FRET binding assay (A3); conditions: inhibition of binding of 100 nM CA200645, CHO cell membranes
Protocol: (§1) Biological Example 1—Adenosine Receptor Time-Resolved Fluorescence Resonance Energy Transfer (TRFRET) Binding Assay
(§2) All FRET binding experiments were conducted at room temperature in white 384-well plates, in assay binding buffer containing 1×LabMed (Cisbio, France), 100 μg/mL saponin, 1% DMSO and 0.02% pluronic acid. Binding of the fluorescently labelled Adenosine receptor antagonist XAC (CA200645, FRET acceptor) to terbium-labelled A1, A2a, A2b and A3 adenosine receptors (FRET donors) was detected by time-resolved FRET due to the close proximity of the donor and acceptor in a binding event. To investigate the ability of unlabelled test compounds to bind to Adenosine A1, A2a, A2b and A3 receptors, dose response curves were constructed that determined the ability of a range of concentrations to inhibit the binding of 30 nM CA200645 to the A2b receptor and 100 nM CA200645 to the A1, A2a, and A3 receptor.
(§3) Serial dilution (1:3 dilutions) of test compounds in neat DMSO and transfer of a 400 nL sample of test compound into the assay plate was carried out using the Mosquito (TTP Labtech, UK). The compound samples were incubated for 2 hours at room temperature with a fixed concentration of CA200645 defined for each receptor (see above) and CHO cell membranes containing the human Adenosine A1 (0.5 μg/well), A2a (0.3 μg/well), A2b (1 μg/well) or A3 (1 μg/well) receptor in 40 μL of assay buffer. Total and non-specific binding of CA200645 was determined in the absence and presence of 10 μM XAC, respectively. Following 2 hours incubation, the level of CA200645 binding was detected on a Pherastar FSX (BMG Labtech, Germany) using standard TR-FRET settings. The terbium donor was excited with three laser flashes at a wavelength of 337 nm, and donor and acceptor emission was detected at 620 nm and 665 nm wavelengths, respectively. FRET ratios were obtained by multiplying the acceptor/donor ratio value by 10,000. Specific binding was determined by subtracting the non-specific binding FRET ratio from the total binding FRET ratio. Compound IC50 curves were analysed using GraphPad Prism 7.0 (GraphPad, USA) and Ki affinity values were determined from the obtained IC50 values using the method of Cheng and Prusoff.

[2] = biological target: human Adenosine A1 receptor (Homo sapiens (Human), UniProt P30542); experiment: Adenosine receptor TR-FRET binding assay (A1); conditions: inhibition of binding of 100 nM CA200645, CHO cell membranes
Sequence of human Adenosine A1 receptor (P30542 whole entry): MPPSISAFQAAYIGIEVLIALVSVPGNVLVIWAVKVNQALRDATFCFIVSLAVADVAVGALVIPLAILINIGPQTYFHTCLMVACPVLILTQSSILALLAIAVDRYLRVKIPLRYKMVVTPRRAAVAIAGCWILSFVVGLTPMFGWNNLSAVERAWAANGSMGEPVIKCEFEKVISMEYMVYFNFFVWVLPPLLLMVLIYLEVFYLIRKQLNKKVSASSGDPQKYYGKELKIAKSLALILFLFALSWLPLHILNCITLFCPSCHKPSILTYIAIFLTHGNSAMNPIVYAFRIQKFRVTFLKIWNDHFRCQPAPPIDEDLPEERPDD
Protocol: as §1, §2, §3

[3] = biological target: human Adenosine A2b receptor (Homo sapiens (Human), UniProt P29275); experiment: Adenosine receptor TR-FRET binding assay (A2b); conditions: TR-FRET, inhibition of binding of 30 nM CA200645, CHO cell membranes
Sequence of human Adenosine A2b receptor (P29275 whole entry): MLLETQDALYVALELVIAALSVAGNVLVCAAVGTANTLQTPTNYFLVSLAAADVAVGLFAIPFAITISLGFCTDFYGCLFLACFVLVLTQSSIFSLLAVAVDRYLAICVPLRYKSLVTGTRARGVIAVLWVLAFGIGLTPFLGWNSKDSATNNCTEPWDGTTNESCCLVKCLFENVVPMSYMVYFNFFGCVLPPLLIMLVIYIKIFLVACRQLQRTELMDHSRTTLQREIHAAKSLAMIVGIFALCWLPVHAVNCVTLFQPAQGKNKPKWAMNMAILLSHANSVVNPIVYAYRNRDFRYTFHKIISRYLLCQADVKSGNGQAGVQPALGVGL
Protocol: as §1, §2, §3

[4] = biological target: human Adenosine A2a receptor (Homo sapiens (Human), UniProt P29274); experiment: Adenosine receptor TR-FRET binding assay (A2a); conditions: inhibition of binding of 100 nM CA200645, CHO cell membranes
Sequence of human Adenosine A2a receptor (P29274 whole entry): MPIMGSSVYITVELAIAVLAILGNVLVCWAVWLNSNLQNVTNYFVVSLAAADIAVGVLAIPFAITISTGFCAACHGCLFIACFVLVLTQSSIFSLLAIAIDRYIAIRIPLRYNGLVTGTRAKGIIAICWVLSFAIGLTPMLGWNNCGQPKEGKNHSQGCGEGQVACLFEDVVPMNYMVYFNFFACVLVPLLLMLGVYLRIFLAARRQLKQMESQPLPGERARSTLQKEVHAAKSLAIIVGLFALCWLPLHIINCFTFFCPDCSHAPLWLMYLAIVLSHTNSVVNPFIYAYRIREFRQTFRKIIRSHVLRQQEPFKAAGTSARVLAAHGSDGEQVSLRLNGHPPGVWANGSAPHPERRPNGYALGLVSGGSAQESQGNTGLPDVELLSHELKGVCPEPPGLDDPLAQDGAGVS
Protocol: as §1, §2, §3

Sequence of human Adenosine A3 receptor (P0DMS8 whole entry): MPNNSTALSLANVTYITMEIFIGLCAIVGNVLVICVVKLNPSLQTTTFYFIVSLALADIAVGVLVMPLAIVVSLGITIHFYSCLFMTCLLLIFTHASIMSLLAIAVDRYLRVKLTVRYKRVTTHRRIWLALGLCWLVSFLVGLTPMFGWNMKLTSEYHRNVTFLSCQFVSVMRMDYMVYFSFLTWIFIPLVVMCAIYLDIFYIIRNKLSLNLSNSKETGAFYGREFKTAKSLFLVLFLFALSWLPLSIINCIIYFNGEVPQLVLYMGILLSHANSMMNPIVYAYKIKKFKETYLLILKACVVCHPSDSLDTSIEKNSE

| Ki [1] [nM] | Ki [2] [nM] | Ki [3] [nM] | Ki [4] [nM] | SMILES |
| --- | --- | --- | --- | --- |
| 125 | 32 | 1.5 | 0.87 | Cc1cc(-c2sc(NC(=O)N3CC[C@H](C(N)=O)C3)nc2-c2cccc(C#N)c2)cc(C)n1 [Example 6.3, (3S)-N1-[4-(3-Cyanophenyl)-5-(2,6-dimethyl-4-pyridyl)thiazol-2-yl]pyrrolidine-1,3-dicarboxamide] |
| 312 | 23 | 1.1 | 0.72 | Cc1cc(-c2sc(NC(=O)N3CC[C@@H](C(N)=O)C3)nc2-c2cccc(C#N)c2)cc(C)n1 [Example 6.8, (3R)-N1-[4-(3-Cyanophenyl)-5-(2,6-dimethyl-4-pyridyl)thiazol-2-yl]pyrrolidine-1,3-dicarboxamide] |
| 259 | 263 | 5.9 | 2.02 | Cc1cc(-c2sc(NC(=O)N3CC(=O)N4CCCCC4C3)nc2-c2cccc(C#N)c2)cc(C)n1 (stereo not shown) [Example 6.15, N-[4-(3-Cyanophenyl)-5-(2,6-dimethyl-4-pyridyl)thiazol-2-yl]-4-oxo-3,6,7,8,9,9a-hexahydro-1H-pyrido[1,2-a]pyrazine-2-carboxamide] |
| 565 | 422 | 17.6 | 3.99 | Cc1cc(-c2sc(NC(=O)N3CCN4CCNC(=O)C4C3)nc2-c2cccc(C#N)c2)cc(C)n1 (stereo not shown) [Example 6.16, N-[4-(3-Cyanophenyl)-5-(2,6-dimethyl-4-pyridyl)thiazol-2-yl]-9-oxo-3,4,6,7,8,9a-hexahydro-1H-pyrazino[1,2-a]pyrazine-2-carboxamide] |
| 130 | 20 | 1.1 | 0.61 | Cc1cc(-c2sc(NC(=O)N3CC[S+]([O-])CC3)nc2-c2cccc(C#N)c2)cc(C(F)F)n1 [Example 6.19, N-[4-(3-Cyanophenyl)-5-[2-(difluoromethyl)-6-methyl-4-pyridyl]thiazol-2-yl]-1-oxo-1,4-thiazinane-4-carboxamide] |
| 96 | 6 | 1.3 | 0.86 | Cc1cc(-c2sc(NC(=O)N3CCC(n4cccn4)CC3)nc2-c2cccc(C#N)c2)cc(C)n1 [Example 6.21, N-[4-(3-Cyanophenyl)-5-(2,6-dimethyl-4-pyridyl)thiazol-2-yl]-4-pyrazol-1-yl-piperidine-1-carboxamide] |
| 107 | 4 | 1.8 | 0.38 | Cc1cc(-c2sc(NC(=O)N3CCC(c4ncon4)CC3)nc2-c2cccc(C#N)c2)cc(C)n1 [Example 6.22, N-[4-(3-Cyanophenyl)-5-(2,6-dimethyl-4-pyridyl)thiazol-2-yl]-4-(1,2,4-oxadiazol-3-yl)piperidine-1-carboxamide] |
| 394 | 92 | 6.5 | 2.99 | Cc1cc(-c2sc(NC(=O)N3CCN4C(=O)NC(=O)C4C3)nc2-c2cccc(C#N)c2)cc(C)n1 (stereo not shown) [Example 6.23, N-[4-(3-Cyanophenyl)-5-(2,6-dimethyl-4-pyridyl)thiazol-2-yl]-1,3-dioxo-5,6,8,8a-tetrahydroimidazo[1,5-a]pyrazine-7-carboxamide] |
| 94 | 2 | 1.1 | 1.73 | Cc1cc(-c2sc(NC(=O)N3CCC(c4ncc[nH]4)CC3)nc2-c2cccc(C#N)c2)cc(C)n1 [Example 6.25, N-[4-(3-Cyanophenyl)-5-(2,6-dimethyl-4-pyridyl)thiazol-2-yl]-4-(1H-imidazol-2-yl)piperidine-1-carboxamide] |
| 151 | 45 | 1.4 | 1.01 | Cc1cc(-c2sc(NC(=O)N3CCn4ccnc4C3)nc2-c2cccc(C#N)c2)cc(C)n1 [Example 6.27, N-[4-(3-Cyanophenyl)-5-(2,6-dimethyl-4-pyridyl)thiazol-2-yl]-6,8-dihydro-5H-imidazo[1,2-a]pyrazine-7-carboxamide] |
| 226 | 32 | 3.2 | 4.84 | CNC(=O)C1CCN(C(=O)Nc2nc(-c3cccc(C#N)c3)c(-c3cc(C)nc(C)c3)s2)CC1 [Example 6.28, N1-[4-(3-Cyanophenyl)-5-(2,6-dimethyl-4-pyridyl)thiazol-2-yl]-N4-methyl-piperidine-1,4-dicarboxamide] |
| 186 | 19 | 2.1 | 1.5 | Cc1cc(-c2sc(NC(=O)N3CCC(c4ncno4)CC3)nc2-c2cccc(C#N)c2)cc(C)n1 [Example 6.31, N-[4-(3-Cyanophenyl)-5-(2,6-dimethyl-4-pyridyl)thiazol-2-yl]-4-(1,2,4-oxadiazol-5-yl)piperidine-1-carboxamide] |
| 268 | 51 | 3.6 | 3.65 | Cc1cc(-c2sc(NC(=O)N3CCC(C(=O)NCCO)CC3)nc2-c2cccc(C#N)c2)cc(C)n1 [Example 6.33, N1-[4-(3-Cyanophenyl)-5-(2,6-dimethyl-4-pyridyl)thiazol-2-yl]-N4-(2-hydroxyethyl)piperidine-1,4-dicarboxamide] |
| 166 | 26 | 2.1 | 0.64 | Cc1cc(-c2sc(NC(=O)N3CC4(CCOC(=O)N4)C3)nc2-c2cccc(C#N)c2)cc(C)n1 [Example 6.34, N-[4-(3-Cyanophenyl)-5-(2,6-dimethyl-4-pyridyl)thiazol-2-yl]-6-oxo-7-oxa-2,5-diazaspiro[3.5]nonane-2-carboxamide] |

The next lines start with the compound.

| SMILES | Ki [1] [nM] | Ki [2] [nM] | Ki [3] [nM] | Ki [4] [nM] |
| --- | --- | --- | --- | --- |
| Cc1cc(-c2sc(NC(=O)N3CCO[C@H](CO)C3)nc2-c2cccc(C#N)c2)cc(C)n1 [Example 4.21, (2S)-N-[4-(3-Cyanophenyl)-5-(2,6-dimethyl-4-pyridyl)thiazol-2-yl]-2-(hydroxymethyl)morpholine-4-carboxamide] | 265 | 10 | 1 | 0.3 |
| Cc1cc(-c2sc(NC(=O)N3CCS(=O)(=O)CC3)nc2-c2cccc(C#N)c2)cc(C)n1 [Example 4.27, N-[4-(3-Cyanophenyl)-5-(2,6-dimethyl-4-pyridyl)thiazol-2-yl]-1,1-dioxo-1,4-thiazinane-4-carboxamide] | 423 | 6 | 0.8 | 0.1 |
| Cc1cc(-c2sc(NC(=O)N3CCN(CCO)C(=O)C3)nc2-c2cccc(C#N)c2)cc(C)n1 [Example 4.31, N-[4-(3-Cyanophenyl)-5-(2,6-dimethyl-4-pyridyl)thiazol-2-yl]-4-(2-hydroxyethyl)-3-oxo-piperazine-1-carboxamide] | 425 | 210 | 4.7 | 3.75 |
| Cc1cc(-c2sc(NC(=O)N3CC(C(C)(C)O)C3)nc2-c2cccc(C#N)c2)cc(C)n1 [Example 4.33, N-[4-(3-Cyanophenyl)-5-(2,6-dimethyl-4-pyridyl)thiazol-2-yl]-3-(1-hydroxy-1-methyl-ethyl)azetidine-1-carboxamide] | 410 | 62 | 5.9 | 1.91 |
| Cc1cc(-c2sc(NC(=O)N3CCN[C@@H](C(=O)O)C3)nc2-c2cccc(C#N)c2)cc(Cl)n1 [Example 5, (2R)-4-[[5-(2-Chloro-6-methyl-4-pyridyl)-4-(3-cyanophenyl)thiazol-2-yl]carbamoyl]piperazine-2-carboxylic acid] | 696 | 601 | 5.5 | 5.75 |
| COC(=O)[C@H]1CN(C(=O)Nc2nc(-c3cccc(C#N)c3)c(-c3cc(C)nc(Cl)c3)s2)CCN1 [Example 5.1, Methyl (2R)-4-[[5-(2-chloro-6-methyl-4-pyridyl)-4-(3-cyanophenyl)thiazol-2-yl]carbamoyl]piperazine-2-carboxylate] | 229 | 45 | 1.6 | 0.62 |
| Cc1cc(-c2sc(NC(=O)N3CCN[C@@H](CO)C3)nc2-c2cccc(C#N)c2)cc(Cl)n1 [Example 5.3, (3R)-N-[5-(2-Chloro-6-methyl-4-pyridyl)-4-(3-cyanophenyl)thiazol-2-yl]-3-(hydroxymethyl)piperazine-1-carboxamide] | 98 | 90 | 2.1 | 2.31 |
| Cc1cc(-c2sc(NC(=O)N3CCN[C@@H](C(N)=O)C3)nc2-c2cccc(C#N)c2)cc(Cl)n1 [Example 5.7, (3R)-N1-[5-(2-Chloro-6-methyl-4-pyridyl)-4-(3-cyanophenyl)thiazol-2-yl]piperazine-1,3-dicarboxamide] | 247 | 48 | 1.8 | 2.9 |
